# US6794396B2, “Substituted pyridines useful for inhibiting cholesteryl ester transfer protein activity” (Pharmacia Corporation, priority 1998, dated 2004)
# Like-named read-outs stand apart in the source and are kept apart here.
# Key:
# CETP [1] = molecular target: T1, CETP (Homo sapiens, UniProt P11597); assay: CETP activity in vitro: transfer of [3H]CE from HDL donor to LDL acceptor particles; assay type: biochemical
# T1 construct: made in house; host or cells: CHO cells (serum-free conditioned medium)
# T1 sequence (P11597 18-493): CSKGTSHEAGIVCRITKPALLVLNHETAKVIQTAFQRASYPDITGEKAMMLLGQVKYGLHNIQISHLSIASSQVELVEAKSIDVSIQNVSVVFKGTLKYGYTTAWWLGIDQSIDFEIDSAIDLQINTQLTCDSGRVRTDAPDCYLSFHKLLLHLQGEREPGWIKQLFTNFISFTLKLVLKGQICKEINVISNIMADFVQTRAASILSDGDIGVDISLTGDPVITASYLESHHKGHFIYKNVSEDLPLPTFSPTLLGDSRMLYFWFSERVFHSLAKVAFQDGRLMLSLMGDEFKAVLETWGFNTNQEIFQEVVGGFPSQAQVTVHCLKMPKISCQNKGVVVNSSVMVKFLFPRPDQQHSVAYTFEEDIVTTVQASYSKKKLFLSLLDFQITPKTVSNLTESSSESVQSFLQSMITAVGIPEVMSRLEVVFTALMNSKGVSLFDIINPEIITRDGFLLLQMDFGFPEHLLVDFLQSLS
# In short: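 CETP from conditioned medium of CETP-transfected CHO cells incubated with [3H]CE-labelled HDL donor and LDL acceptor, pH 7.4 Tris buffer with NaCl, EDTA and 1% BSA, 2 h at 37 °C. LDL precipitated with dextran sulfate/MgCl2, filtered, and transferred radioactivity counted; IC50 reported.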
# [2] = molecular target: T2, CETP in human plasma or serum pool (Homo sapiens, UniProt P11597); assay: Whole serum CETP activity assay (tritiated cholesterol ester); assay type: biochemical; conditions: 4 hours at 37° C.
# T2 construct: from tissue; host or cells: pooled human EDTA plasma or serum from healthy volunteers
# T2 sequence (P11597 18-493): T1 sequence (P11597 18-493)
# Procedure: Blood was obtained from healthy volunteers recruited from the personnel of Monsanto Company, Saint Louis, Mo. Blood was either collected in tubes containing EDTA (EDTA plasma pool) or in tubes without EDTA (spun to form the serum pool). The EDTA human plasma pool or human serum pool, previously stored at −20° C., was thawed at room temperature, and centrifuged for 5 minutes to remove any particulate matter. Tritiated HDL, radiolabeled in the cholesteryl ester moiety ([^3H]CE-HDL) as described by Morton and Zilversmit (J. Biol. Chem., 256, 11992-95 (1981) which is incorporated by reference herein), was added to the plasma or serum to a final concentration of (25 μg/ml cholesterol).
# Inhibitor compounds were added to the plasma or serum as follows: Equal volumes of the plasma or serum containing the [^3H]CE-HDL (396 μl) were pipetted into micro tubes (Titertube®, Bio-Rad Laboratories, Hercules, Calif.). Compounds, usually dissolved as 20-50 mM stock solutions in DMSO, were serially diluted in DMSO (or an alternative solvent in some cases, such as dimethylformamide or ethanol). Four μl of each of the serial dilutions of inhibitor compounds or DMSO alone were then added to each of the plasma or serum tubes. The tubes were immediately mixed. Triplicate aliquots (100 μl) from each plasma or serum tube were then transferred to wells of 96-well round-bottomed polystyrene microtiter plates (Corning, Corning, N.Y.). Plates were sealed with plastic film and incubated at 37° C. for 4 hours.
# Test wells contained plasma or serum with dilutions of inhibitor compounds. Control wells contained plasma or serum with DMSO alone. Blank wells contained plasma or serum with DMSO alone that were left in the micro tubes at 4° C. for the 4 hour incubation and were added to the microtiter wells at the end of the incubation period. VLDL and LDL were precipitated by the addition of 10 μl of precipitating reagent (1% (w/v) Dextran Sulfate (Dextralip50)/0.5M magnesium chloride, pH 7.4) to all wells. The wells were mixed on a plate mixer and then incubated at ambient temperature for 10 min. The plates were then centrifuged at 1000×g for 30 mins at 10° C. The supernatants (50 μl) from each well were then transferred to Picoplate™ 96 plate wells (Packard, Meriden, Conn.) containing […] Microscint™-40 (Packard, Meriden, Conn.). The plates were heat-sealed (TopSeal™-P, Packard, Meriden, Conn.) according to the manufacturers directions and mixed for 30 min.
# Radioactivity was measured on a microplate scintillation counter (TopCount, Packard, Meriden, Conn.). […] The maximum percent transfer (in the control wells) was determined using the following equation: [formula]
# The percent of control transfer determined in the wells containing inhibitor compounds was determined as follows: [formula]
# IC50 values were then calculated from plots of % control versus concentration of inhibitor compound.
# CETP [3] = assay: Inhibition of CETP activity in vivo: [3H]CE transfer from HDL to VLDL and LDL after intravenous injection; design: species or system golden Syrian hamster; conditions: hamsters, injection into jugular vein, four hours
# Description: Inhibition of CETP by a test compound can be determined by administering the compound to an animal by intravenous injection, determining the rate of transfer of tritium-labeled cholesteryl ester (^3H]CE) from HDL to VLDL and LDL particles, and comparing the rate of transfer with the rate of transfer observed in control animals.
# Male golden Syrian hamsters were maintained on a diet of chow containing 0.24% cholesterol for at least two weeks prior to the study. Immediately before the experiment, animals were anesthetized with pentobarbital. Anesthesia was maintained throughout the experiment. Indwelling catheters were inserted into the jugular vein and carotid artery. Test compound, Dimethyl 5,5′-dithiobis[2-difluoromethyl)-4-(2-methylpropyl)-6-(trifluoromethyl)-3-pyridinecarboxylate] (Compound 181), was dissolved as a 80 mM stock solution in vehicle (2% ethanol: 98% PEG 400, Sigma Chemical Company, St. Louis, Mo., USA). At the start of the experiment all animals received 0.2 ml of a solution containing [^3H]-CE-HDL into the jugular vein. [^3H[-CE-HDL is a preparation of human HDL containing tritium-labeled cholesteryl ester, and was prepared according to the method of Glenn et al. (“Quantification of Cholesteryl Ester Transfer Protein (CETP): A) CETP Activity and B) Immunochemical Assay of CETP Protein,” Meth. Enzymol., Glenn and Melton (Meth. Enzymol., 263, 339-351 (1996) which is incorporated herein by reference).
# After 2 minutes, the animals received 0.1 ml of the test solution injected into the jugular vein. Control animals received 0.1 ml of the vehicle solution without test compound. After 5 minutes, the first blood samples (0.5 ml) were taken from the carotid artery and collected in standard microtainer tubes containing ethylenediamine tetraacetic acid. Saline (0.5 ml) was injected to flush the catheter and replace blood volume. Subsequent blood samples were taken at two hours and four hours by the same method. Blood samples were mixed well and kept on ice until the completion of the experiment.
# Plasma was obtained by centrifugation of the blood samples at 4° C. The plasma (50 μl) was then treated with 5 μl of precipitating reagent (dextran sulfate, 10 g/l; 0.5M magnesium chloride to remove VLDL/LDL. After centrifugation, the resulting supernatant (25 μl) containing the HDL was analyzed for radioactivity using a liquid scintillation counter. The percentage [^3H] CE transferred from HDL to LDL and VLDL (% transfer) was calculated based on the total radioactivity in equivalent serum samples before precipitation. Typically, the amount of transfer from HDL to LDL and VLDL in control animals was 30 to 35% after four hours. The polyethylene glycol vehicle was determined to have no effect on CETP activity in this model.
# (Compound 181), and five animals that received vehicle. At two hours, mean values of 13% [^3H]-Ce transfer from HDL to LDL and VLDL were obtained for the control animals, but only 4.7% transfer for the animals receiving Compound 181. […] Student t-tests were performed to determine if the means for control and animals treated with Compound 181 were statistically different.
# [4] = Table 6, compounds of formula T-6, read-out: IC50
# [5] = 50% inhibition of [3H]CE transfer from HDL to LDL, 2 hours at 37° C., read-out: IC50(μm)
# [6] = IC50(μm), 50% inhibition of [3H]CE transfer from HDL to LDL, 2 hours at 37° C.
Structure (SMILES),IC50 whole serum CETP activity [2] [µM],IC50 (CETP [1]; [5]) [µM],melting point [°C],IC50 (CETP [1]; [6]) [µM],further results
"COC(=O)c1c(C(F)F)nc(C(F)(F)F)c(C(=O)Sc2ccc(F)cc2Cc2ccc(F)cc2)c1CC(C)C [Compound 161, Methyl 2-(Difluoromethyl)-4-(2-methylpropyl)-5-{[(2-(4-fluorobenzyl)-4-fluorophenyl)thio]carbonyl}-6-(trifluoromethyl)-3-pyridinecarboxylate]",,70,105 to 107,,
"COC(=O)c1c(C(F)F)nc(C(F)(F)F)c(C(=O)Sc2cc(Cl)ccc2Cl)c1CC(C)C [Compound 163, Methyl 5-{[(2,5-Dichlorophenyl)thio]carbonyl}-2-(difluoromethyl)-4-(2-methylpropyl)-6-(trifluoromethyl)-3-pyridinecarboxylate]",,,112.5 to 113.5,65,
"COC(=O)c1c(C(F)F)nc(C(F)(F)F)c(C(=O)Oc2cc(OC)c(OC)c(OC)c2Cc2ccc(F)cc2)c1CC(C)C [Compound 171, 3-Methyl 5-[2-(4-Fluorobenzyl)-3,4,5-(trimethoxy)phenyl]2-(Difluoromethyl)-4-(2-methylpropyl)-6-(trifluoromethyl)-3,5-pyridicarboxylate]",,70,131.5 to 133.5,,
"COC(=O)c1c(C(F)F)nc(C(F)(F)F)c(C(=O)Oc2cc(C)cc(C)c2)c1CC(C)C [Compound 174, 3-Methyl 5-(3,5-Dimethylphenyl) 2-(Difluoromethyl)-4-(2-methylpropyl)-6-(trifluoromethyl)-3,5-pyridicarboxylate]",,,90.5 to 94,60,
"COC(=O)c1c(C(F)F)nc(C(F)(F)F)c(C(=O)Sc2ccc(SC)cc2)c1CC(C)C [Compound 159, Methyl 2-(Difluoromethyl)-4-(2-methylpropyl)-5-{[(4-methylthiophenyl)thio]carbonyl}-6-(trifluoromethyl)-3-pyridinecarboxylate]",,,112 to 114,80,
"COC(=O)c1c(C(F)F)nc(C(F)(F)F)c(C(=O)Sc2ccc(C)cc2C)c1CC(C)C [Compound 158, Methyl 2-(Difluoromethyl)-5-{[(2,4-dimethyl-phenyl)thio]carbonyl}-4-(2-methylpropyl)-6-(trifluoromethyl)-3-pyridinecarboxylate]",,,96 to 99,100,

# More lines, main results first:
IC50 whole serum CETP activity [2] [µM],IC50 (CETP [1]; [5]) [µM],Structure (SMILES),melting point [°C],IC50 (CETP [1]; [6]) [µM],further results
70,,"COC(=O)c1c(C(F)F)nc(C(F)(F)F)c(CSc2ccc(Cl)c(Cl)c2)c1CC(C)C [Compound 214, Methyl 5-[(3,4-Dichlorophenyl)thiomethyl]-2-(difluoromethyl)-4-(2-methylpropyl)-6-(trifluoromethyl)-3-pyridinecarboxylate]",,,IC50 (CETP [1]; [4]): 2 µM
17,8.75,"COC(=O)c1c(C(F)F)nc(C(F)(F)F)c(S)c1CC(C)C [Compound 7, Methyl 2-(Difluoromethyl)-5-mercapto-4-(2-methylpropyl)-6-(trifluoromethyl)-3-pyridinecarboxylate]",,,% Transfer of [3H]-CE from HDL to LDL and VLDL (CETP [3]): 10.6%; % Inhibition of CETP activity (CETP [3]; versus control animals): 50%
,100,"COC(=O)c1c(C(F)F)nc(C(F)(F)F)c(C(=O)Sc2ccc(C(C)(C)C)cc2)c1CC(C)C [Compound 156, Methyl 5-{[(4-t-Butylphenyl)thio]carbonyl}-2-(difluoromethyl)-4-(2-methylpropyl)-6-(trifluoromethyl)-3-pyridinecarboxylate]",60.5 to 62.5,,
9,,"COC(=O)c1c(C(F)F)nc(C(F)(F)F)c(SSc2ccc(C(C)(C)C)cc2)c1CC(C)C [Compound 180, Methyl 5-(4-t-Butylphenyldithio)-2-(difluoromethyl)-4-(2-methylpropyl)-6-(trifluoromethyl)-3-pyridinecarboxylate]",,,"IC50 (CETP [1]; Table 5, compounds of formula T-5, read-out: IC50): 0.45 µM"
,70,"COC(=O)c1c(C(F)F)nc(C(F)(F)F)c(C(=O)Oc2ccc(C)cc2C)c1CC(C)C [Compound 177, 3-Methyl 5-(2,4-Dimethylphenyl) 2-(Difluoromethyl)-4-(2-methylpropyl)-6-(trifluoromethyl)-3,5-pyridicarboxylate]",95 to 99,,
110,,"COC(=O)c1c(C(F)F)nc(C(F)(F)F)c(CSc2ccc3ccccc3c2)c1CC(C)C [Compound 215, Methyl 5-[(2-Naphthyl)thiomethyl]-2-(difluoromethyl)-4-(2-methylpropyl)-6-(trifluoromethyl)-3-pyridinecarboxylate]",,,IC50 (CETP [1]; [4]): 2 µM
